In US20230416261A1, “ETHANEDIAMINE-HETEROCYCLE DERIVATIVES AS INHIBITORS OF PROTEIN ARGININE METHYLTRANSFERASES” (Board of Regents, The University of Texas System, priority 2021, published 2023):

How the values were obtained:
[1] = target: T1, PRMT1 (Homo sapiens, UniProt Q99873); assay: PRMT1 RKO Cellular Target Engagement Assay (In-Cell Western, asymmetric di-methyl arginine); assay type: cell-based; conditions: RKO cells, 48 hr compound incubation; read-out: RKO IC50 (PRMT-1 Target Engagement)
Experimental: RKO cells were routinely maintained in EMEM media (ATCC, Catalog #30-2003) supplemented with 10% fetal bovine serum (Sigma, Catalog #F2442) using a humidified incubator (37° C., 5% CO2, and ambient O2).
In preparation for the In-Cell Western assay, cells were harvested and resuspended in EMEM media supplemented with 10% fetal bovine serum. Cells were seeded onto a 384 well, black, clear bottom, Poly-D-Lysine coated tissue culture plate (Greiner, Catalog #781946) at a density of 1,000 cells/well in a volume of 40 μL. The culture plate was incubated for 24 hr at 37° C. with 5% CO2 and ambient O2. Stock solutions of the test compounds were prepared in 100% DMSO (Sigma, Catalog #D2650) and serially diluted 1:3 using 100% DMSO. Compounds were additionally diluted 1:40 in culture medium, and 10 μL/well was transferred to the tissue culture plate. Following the compound addition the microplate was incubated at 37° C. for 48 hr.
The media was removed, the plate was washed with 1× PBS (Fisher Bioreagents, Catalog #BP399-20), and cells were fixed for 10 min using 30 μL/well of 4% paraformaldehyde (Electron Microscopy Sciences, Catalog #15710). The paraformaldehyde was removed, the plate was again washed with 1× PBS, and cells were permeabilized for 15 min using 30 μL/well of 1× PBS containing 0.5% Triton-X 100 (Sigma, Catalog #1001748095). The permeabilization buffer was removed, the plate was washed with 1× PBST (Boston BioProducts, Catalog #IBB-171X), and 50 μL/well of blocking buffer (LI-COR, Catalog #927-40000) was added followed by a 1 hour incubation at room temperature. The blocking buffer was removed, and 20 μL/well of anti-asymmetric di-methyl arginine antibody (Cell Signaling, Catalog #13522S) diluted 1:1000 in LI-COR blocking buffer was added to the plate and incubated overnight, in the dark at 4° C.
The primary antibody was then removed, and the plate was washed three times with 1× PBST. 20 μL/well of CellTag (LI-COR, Catalog #926-41090) and IRDye 800CW goat anti-rabbit IgG antibody (LI-COR, Catalog #926-32211), each diluted 1:500 in LI-COR blocking buffer supplemented with 0.1% Tween-20 (Thermo Scientific, Catalog #85114), were added to the plate. The plate was then incubated in the dark, at room temperature for 1 hour followed by three washes with 1× PBST and one wash with H2O. The IRDye secondary antibody signal (800 channel) and the CellTag signal (700 channel) were measured using a Licor Odyssey Imager, and the 800 channel signal was then normalized to the 700 channel signal. IC50 values were calculated using a four-parameter logistic curve fit using Genedata Screener software.

[2] = test system: PATC53 cells; assay: PATC53 Long Term Phenotypic Assay (14 days, crystal violet viability); assay type: cell-based; conditions: 336 h
Experimental: PATC53 cells were derived from the PATC53 PDX model and kindly provided by Jason Fleming (MDACC). The cells were routinely maintained in DMEM/F12 Medium (Corning, Catalog #10-090-CV) supplemented with 10% fetal bovine serum (Sigma, Catalog #F2442), 100 units/mL penicillin and 100 μg/mL streptomycin (Gibco, Catalog #15140-122) in a humidified incubator (37° C., 5% CO2). Prior to the assay, cells were seeded onto a 12-well, TC treated plate (Corning, catalog #353043) at a density of 250 cells per well in a volume of 1 mL. The plate was incubated for 24 hours at 37° C. and 5% CO2. Stock solutions of the test compounds were prepared in 100% DMSO (Sigma, Catalog #D2650) and serially diluted 1:3 using 100% DMSO. Compounds were additionally diluted 1:100 in culture medium, and 110 μL/well was transferred to the tissue culture plate. Following the compound addition, the plate was incubated at 37° C. and 5% CO2 for 14 days. Viability was then assessed by crystal violet staining (Fisher Scientific, Catalog #C58125) as follows: 450 μL of crystal violet (1 mg/mL) was added to the plate for a 10 minute incubation at room temperature. After incubation, the plate was washed 3× with distilled water to remove excess dye and allowed to dry overnight. The crystal violet was solubilized using 10% HOAc (500 μL) for 10 minutes at room temperature, while shaking. A volume of 100 μL was then transferred to a 96-well SpectraPlate (Perkin Elmer, Catalog #6005649). Absorbance at 590 nm was measured with a BioTek Synergy Neo. IC50 values were calculated using a four-parameter logistic curve fit using Genedata Screener software.

[3] = target: T1, PRMT1; assay: PRMT1 Enzymatic Assay (LANCE TR-FRET, methylation of histone H4 at Arg3); assay type: biochemical; set-up: purchased SignalChem P365-380G; conditions: PRMT1 1.5 nM, SAM 1 μM, biotinylated histone H4 (1-21) 25 nM; read-out: PRMT-1 IC50
Experimental: In order to measure PRMT1 enzymatic activity the LANCE TR-FRET assay from PerkinElmer was used to follow the methylation of histone H4 at Arg3 using S-adenosyl-L-methionine (SAM) as the methyl group donor.
This enzymatic assay was performed in a 384 well, white, low volume plate (PerkinElmer, Catalog 6008289) with assay buffer consisting of 50 mM Hepes (pH 8) (Teknova, Catalog #H1090), 1 mM TCEP (Sigma, Catalog #C4706), and 0.003% Tween-20 (Thermo, Catalog #85114). Stock solutions of the test compounds were prepared in 100% DMSO (Sigma, Catalog #D2650) and serially diluted 1:3 using 100% DMSO. Compounds were additionally diluted 1:40 in assay buffer, and 2 uL/well were transferred to the assay plate. 4 uL/well (final concentration 1.5 nM) of PRMT1 protein (SignalChem, Catalog #P365-380G) diluted in assay buffer was added to the assay plate followed by a 15 min preincubation at room temperature. 4 uL/well of SAM (Sigma, Catalog #A7007) and biotinylated histone H4 (1-21) (AnaSpec, Catalog #62555) (final concentrations 1 μM and 25 nM, respectively) diluted in assay buffer were then added to the assay plate followed by a 1 hour reaction time. Final concentrations of PRMT1, SAM, and histone H4 (1-21) refer to a […].
Detection of methylated histone H4 (H4R^3me) was achieved by combining LANCE Ultra Europium-anti-H4R^3me antibody (PerkinElmer, Catalog #TRF04-14), LANCE Ultra ULight-anti-streptavidin antibody (PerkinElmer, Catalog #TRF0102), and sinefungin (Sigma, Catalog #S8559) (final concentrations 2 nM, 50 nM, and 100 μM respectively) in 1× LANCE detection buffer (PerkinElmer, Catalog #CR97-100) and adding L/well of the detection solution to the assay plate. Detection reagents were allowed to react for 1 hour at room temperature. Final concentrations in the detection solution refer to a L volume. The europium fluorescence signal and the ULight TR-FRET signal were measured using a BioTek Synergy Neo plate reader: excitation at 330 nm, emission at 620 nm and 665 nm respectively, and the ratio of the two signals (665 nm/620 nm) was used for curve fitting. IC50 values were calculated using a four-parameter logistic curve fit using Genedata Screener software.

[4] = test system: DOHH2 cells; assay: DOHH2 Long Term Phenotypic Assay (7 days, Cell Titer-Glo viability); assay type: cell-based; conditions: Homo sapiens, DOHH-2, 168 h, Cell Titer-Glo 2.0
Experimental: DOHH2 cells were kindly provided by Michael Green (MDACC). The cells were routinely maintained in RPMI-1640 Medium (ATCC, Catalog #30-2001) supplemented with 10% fetal bovine serum (Sigma, Catalog #F2442), 100 units/mL penicillin and 100 μg/mL streptomycin (Gibco, Catalog #15140-122) in a humidified incubator (37° C., 5% CO2). Cells were seeded onto a white, CulturPlate-384 (Perkin Elmer, catalog #6007680) at a density of 250 cells per well in a volume of 50 μL. Stock solutions of the test compounds were prepared in 100% DMSO (Sigma, Catalog #D2650) and serially diluted 1:3 using 100% DMSO. Compounds were additionally diluted 1:33 in culture medium, and 10 μL/well was transferred to the tissue culture plate. Following the compound addition, the plate was incubated at 37° C. and 5% CO2 for 7 days. Cells were then mixed and a 30 μL volume was removed. Viability was assessed by a 30 μL addition of Cell Titer-Glo 2.0 (Promega, catalog #G9243). The plate was then shaken on an orbital shaker at 300 RPM for 10 minutes at room temperature, in the dark. Luminescence was measured using a PerkinElmer Envision™ plate reader. IC50 values were calculated using a four-parameter logistic curve fit using Genedata Screener software.

T1 sequence (Q99873 whole entry): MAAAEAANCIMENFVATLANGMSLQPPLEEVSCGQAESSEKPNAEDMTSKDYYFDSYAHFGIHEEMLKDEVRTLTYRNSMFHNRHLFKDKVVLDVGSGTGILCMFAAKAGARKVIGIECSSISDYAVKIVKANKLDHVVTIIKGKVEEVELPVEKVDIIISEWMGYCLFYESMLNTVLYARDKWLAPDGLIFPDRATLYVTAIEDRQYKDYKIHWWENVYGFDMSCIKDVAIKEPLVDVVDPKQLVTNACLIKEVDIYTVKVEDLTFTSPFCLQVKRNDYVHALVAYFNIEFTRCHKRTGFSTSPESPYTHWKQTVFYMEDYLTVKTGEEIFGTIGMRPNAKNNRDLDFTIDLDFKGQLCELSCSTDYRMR

IC50 [1] [nM] | IC50 [3] [nM] | SMILES | IC50 [2] [nM] | IC50 [4] [nM]
– | 23 | COCC1(COC)CCC(c2c(CN(C)CCN)nn3c2CN(C(=O)C2COC2)CC3)CC1 [Example 12, (2-(((2-aminoethyl)(methyl)-amino)methyl)-3-(4,4-bis-(methoxymethyl)cyclohexyl)-6,7-dihydropyrazolo[1,5-a]-pyrazin-5(4H)-yl)(oxetan-3-yl)methanone] | 3860 | –
370 | 56 | CNCCN(C)Cc1nn2c(c1C1CCC(COC)(COC)CC1)CN(C(=O)C1(C)CC1)CC2 [Example 17, (3-(4,4-bis(methoxymethyl)-cyclohexyl)-2-((methyl(2-(methylamino)ethyl)amino)-methyl)-6,7-dihydropyrazolo-[1,5-a]pyrazin-5(4H)-yl)(1-methylcyclopropyl)-methanone] | 133 | –
1400 | 72 | CNCCN(C)Cc1nn2c(c1C1CCC(COC)(COC)CC1)CN(C(=O)C13CC(C#N)(C1)C3)CC2 [Example 22, 3-(3-(4,4-bis(methoxy-methyl)cyclohexyl)-2-((methyl(2-(methylamino)-ethyl)amino)methyl)-4,5,6,7-tetrahydropyrazolo[1,5-a]-pyrazine-5-carbonyl)bicyclo[1.1.1] pentane-1-carbonitrile] | 447 | –
– | 108 | CNCCN(C)Cc1nn2c(c1C1CCC(COC)(COC)CC1)CN(C(=O)C1CCOCC1)CC2 [Example 31, (3-(4,4-bis(methoxymethyl)-cyclohexyl)-2-((methyl(2-(methylamino)ethyl)amino)-methyl)-6,7-dihydropyrazolo-[1,5-a]pyrazin-5(4H)-yl)-(tetrahydro-2H-pyran-4-yl)-methanone] | 595 | 206
– | 124 | CNCCN(C)Cc1nn2c(c1C1CCC(COC)(COC)CC1)CN(C(=O)CC1CCOCC1)CC2 [Example 34, 1-(3-(4,4-bis(methoxy-methyl)cyclohexyl)-2-((methyl(2-(methylamino)-ethyl)amino)methyl)-6,7-dihydropyrazolo[1,5-a]-pyrazin-5(4H)-yl)-2-(tetrahydro-2H-pyran-4-yl)ethan-1-one] | 642 | 198

The remaining lines, values behind:

SMILES | IC50 [1] [nM] | IC50 [3] [nM] | IC50 [2] [nM] | IC50 [4] [nM]
CCOCC1(COCC)CCC(c2c(CN(C)CCNC)nn3c2CN(C(=O)CC(F)(F)F)CC3)CC1 [Example 3, 1-(3-(4,4-bis(ethoxymethyl)-cyclohexyl)-2-((methyl(2-(methylamino)ethyl)amino)-methyl)-6,7-dihydropyrazolo-[1,5-a]pyrazin-5(4H)-yl)-3,3,3-trifluoropropan-1-one] | 153 | 57 | 428 | –
CCOCC1(COCC)CCC(c2c(CN(C)CCNC)nn3c2CN(C(=O)C2CC2)CC3)CC1 [Example 4, (3-(4,4-bis(ethoxymethyl)-cyclohexyl)-2-((methyl(2-(methylamino)ethyl)amino)-methyl)-6,7-dihydropyrazolo-[1,5-a]pyrazin-5(4H)-yl)-(cyclopropyl)methanone] | 110 | 48 | 1260 | 47
CNCCN(C)Cc1nn2c(c1C1CCC(COC)(COC)CC1)CN(C(=O)CC(F)(F)F)CC2 [Example 7, 1-(3-(4,4-bis(methoxy-methyl)cyclohexyl)-2-((methyl(2-(methylamino)-ethyl)amino)methyl)-6,7-dihydropyrazolo[1,5-a]-pyrazin-5(4H)-yl)-3,3,3-trifluoropropan-1-one] | 1620 | 32 | 210 | –
CNCCN(C)Cc1nn2c(c1C1CCC(COC)(COC)CC1)CN(C(=O)C1COC1)CC2 [Example 9, (3-(4,4-bis(methoxymethyl)-cyclohexyl)-2-((methyl(2-(methylamino)ethyl)amino)-methyl)-6,7-dihydropyrazolo-[1,5-a]pyrazin-5(4H)-yl)-(oxetan-3-yl)methanone] | 1110 | 65 | 1300 | –
COCC1(COC)CCC(c2c(CN(C)CCN)nn3c2CN(C(=O)CC(F)(F)F)CC3)CC1 [Example 10, 1-(2-(((2-aminoethyl)-(methyl)amino)methyl)-3-(4,4-bis(methoxymethyl)-cyclohexyl)-6,7-dihydro-pyrazolo[1,5-a]pyrazin-5(4H)-yl)-3,3,3-trifluoropropan-1-one] | 695 | 20 | 649 | –
